The source of these data is patent US10208040B2, “Fused imidazo-piperidine JAK inhibitors” (THERAVANCE BIOPHARMA R&D IP, LLC, priority 2017, dated 2019).

Read-outs that look alike come from different tables or passages of the source.

Experiment [1] has as its system IL-4 stimulated STAT6 phosphorylation in CD3+ T cells. Description: Inhibition of IL-4 stimulated pSTAT6 in CD3+ T cells. Type of experiment: cell-based. Particulars: T-cell; CD3+ T cells in human PBMCs; read-out: pIC50 inhibition of IL-4 stimulated pSTAT6 (converted). The method, then: The potency of the test compound for inhibition of interleukin-4 (IL-4) stimulated STAT6 phosphorylation was measured in CD3-positive (CD3+) T cells in human peripheral blood mononuclear cells (PBMCs) isolated from human whole blood (Stanford Blood Center) using flow cytometry. Because IL-4 signals through JAK, this assay provides a measure of JAK cellular potency.
CD3+ T cells were identified using a […] (PE) conjugated anti-CD3 antibody (Clone UCHT1, BD Biosciences), while an Alexa Fluor 647 conjugated anti-pSTAT6 antibody (pY641, Clone 18/P, BD Biosciences) was used to detect STAT6 phosphorylation.
Human peripheral blood mononuclear cells (PBMC) were isolated from human whole blood of healthy donors as in Assays 7 and 8. […] After incubation, cells were washed twice in FACS buffer before being analyzed using a LSRII flow cytometer (BD Biosciences).
To determine the inhibitory potency of the test compound in response to IL-4, the median fluorescent intensity (MFI) of pSTAT6 was measured in CD3+ T cells. IC50 values were determined from analysis of the inhibition curves of MFI vs compound concentration. Data are expressed as pIC50 (negative decadic logarithm IC50).

For experiment [2], the system named is alternaria-induced BALF eosinophils. Description: Murine model of Alternaria alternata-induced eosinophilic inflammation of the lung. It is filed as in vivo. Particulars: mouse, oropharyngeal aspiration, 48 h after alternaria challenge, maximum statistically significant percent inhibition. Here is the method: Airway eosinophilia is a hallmark of human asthma. Alternaria alternata is a fungal aeroallergen that can exacerbate asthma in humans and induces eosinophilic inflammation in the lungs of mice (Havaux et al. Clin Exp Immunol. 2005 February; 139(2):179-88).
Seven- to nine-week old male C57 mice from Taconic were used in the study. On the day of study, animals were lightly anesthetized with isoflurane and administered either vehicle or test compound (0.03-1.0 mg/mL, 50 μL total volume over several breaths) via oropharyngeal aspiration. Animals were placed in lateral recumbency post dose and monitored for full recovery from anesthesia before being returned to their home cage. One hour later, animals were once again briefly anesthetized and challenged with either vehicle or alternaria extract (200 ug total extract delivered, 50 μL total volume) via oropharyngeal aspiration before being monitored for recovery from anesthesia and returned to their home cage. Forty-eight hours after alternaria administration, bronchoalveolar lavage fluid (BALF) was collected and eosinophils were counted in the BALF using the Advia 120 Hematology System (Siemens).
Activity in the model is evidenced by a decrease in the level of eosinophils present in the BALF of treated animals at forty-eight hours compared to the vehicle treated, alternaria challenged control animals. Data are expressed as percent inhibition of the vehicle treated, alternaria challenged BALF eosinophils response. To calculate percent inhibition, the number of BALF eosinophils for each condition is converted to percent of the average vehicle treated, alternaria challenged BALF eosinophils and subtracted from one-hundred percent.

Experiment [3] concerns human eosinophils. Description: IL-5 mediated eosinophil survival assay. It is filed as cell-based. Particulars: for IC50: Homo sapiens, Eosinophil, read-out: pIC50 IL-5 mediated eosinophil survival (converted). The method, then:
The potency of the test compound for IL-5 mediated eosinophil survival was measured in human eosinophils isolated from human whole blood (AllCells). Because IL-5 signals through JAK, this assay provides a measure of JAK cellular potency.
Human eosinophils were isolated from fresh human whole blood (AllCells) of healthy donors. Blood was mixed with 4.5% Dextran (Sigma-Aldrich) in a 0.9% sodium chloride solution (Sigma-Aldrich). Red blood cells were left to sediment for 35 minutes. The leukocyte rich upper layer was removed and layered over Ficoll-Paque (GE Healthcare) and centrifuged at 600 g for 30 minutes. The plasma and mononuclear cell layers were removed before the granulocyte layer was lysed with water to remove any contaminating red blood cells. Eosinophils were further purified using a human eosinophil isolation kit (Miltenyi Biotec). A fraction of the purified eosinophils were incubated with anti-CD16 FITC (Miltenyi Biotec) for 10 minutes at 4° C. in the dark. Purity was analyzed using a LSRII flow cytometer (BD Biosciences).
Cells were cultured in a 37° C., 5% CO2 humidified incubator in RPMI 1640 (Life Technologies) supplemented with 10% Heat Inactivated Fetal Bovine Serum (FBS, Life Technologies), 2 mM Glutamax (Life Technologies), 25 mM HEPES (Life Technologies) and 1× Pen/Strep (Life Technologies). Cells were seeded at 10,000 cells/well in media (50 μL). The plate was centrifuged at 300 g for 5 minutes and supernatants removed. Compounds were serially diluted in DMSO and then diluted another 500-fold to a 2× final assay concentration in media. […]
After cytokine stimulation, cells were centrifuged at 300 g for 5 min and washed twice with cold DPBS (Life Technologies). To access viability and apoptosis, cells were incubated with Propidium Iodide (Thermo Fisher Scientific) and APC Annexin V (BD Biosciences) and analyzed using a LSRII flow cytometer (BD Biosciences). IC50 values were determined from analysis of the viability curves of percent cell viability vs compound concentration. Data are expressed as pIC50 (negative decadic logarithm IC50) values.

Experiment [4] has as its system IL-6 stimulated STAT3 phosphorylation in CD3+ T cells. Description: Inhibition of IL-6 stimulated pSTAT3 in CD3+ T cells. Type of experiment: cell-based, human. Particulars: for IC50: T-cell, CD3+ T cells in human PBMCs, read-out: pIC50 inhibition of IL-6 stimulated pSTAT3 (converted). An excerpt: A protocol analogous to that of Assay 9 was used to determine the potency of the test compound for inhibition of interleukin-6 (IL-6) stimulated STAT3 phosphorylation. An Alexa Fluor 647 conjugated anti-pSTAT3 antibody (pY705, Clone 4/P, BD Biosciences) was used to detect STAT3 phosphorylation.

In the case of `CCCN1Cc2[nH]c(-c3n[nH]c4cc(-c5cc(F)c(O)cc5CC)ccc34)nc2C[C@H]1C(=O)N1C[C@@H]2C[C@H]1CN2C` [Example 1, ((S)-2-(6-(2-ethyl-5-fluoro-4-hydroxyphenyl)-1H-indazol-3-yl)-5-propyl-4,5,6,7-tetrahydro-3H-imidazo[4,5-c]pyridin-6-yl)((1S,4S)-5-methyl-2,5-diazabicyclo-[2.2.1]heptan-2-yl)methanone], the IC50 is 20 nM in experiment [1], 50.1 nM in experiment [3] (in the presence of 10 pg/ml IL-5), 2000 nM in experiment [3] (in the presence of 1 ng/ml IL-5) and 63.1 nM in experiment [4]. Besides, in experiment [2], the “Percent Inhibition of Alternaria-induced BALF Eosinophils” value is reported as 90. Moreover, in experiment [3], the “inhibition of IL-5 mediated human eosinophil survival (in words)” value is “potently inhibit”. For the same molecule, the “inhibition of IL-6 signaling (in words)” value in experiment [4] is recorded as “inhibit IL-6 signaling”.
For the molecule `CCc1cc(O)c(F)cc1-c1ccc2c(-c3nc4c([nH]3)CN(C(C)C)[C@H](C(=O)N3CC[C@H](N(C)C)C3)C4)n[nH]c2c1` [Example 3], the IC50 in experiment [1] was 10 nM. The “Percent Inhibition of Alternaria-induced BALF Eosinophils” value in experiment [2] was 93. In addition, in experiment [4], the “inhibition of IL-6 signaling (in words)” value is “inhibit IL-6 signaling” and the IC50 is 39.8 nM.
